# Test results from patent US6596712B2, “Treatment of carcinomas using squalamine in combination with other anti-cancer agents or modalities” (Genaera Corporation, priority 1996, dated 2003).
# Legend:
# Assay type in all cases: cell-based
# [1] = target: T1, human NHE3 (Homo sapiens, UniProt P48764); assay: NHE activity in PS 120 fibroblasts transfected with human NHE3 (BCECF pH change rate)
# T1 construct: expressed in transfected cells; host or cells: PS 120 NHE-deficient fibroblasts
# Procedure: (§1) The following describes the test used to determine that squalamine inhibits NHE3, but not NHE1 or NHE2. NHE deficient fibroblast cells (PS 120) transfected with an individual human NHE gene were loaded with a pH sensitive dye 2′7′-bis(2-carboxyethyl)-5,6-carboxyfluorescein (BCECF). NHE activity was measured by spectrofluorometric methods using this dye and by amiloride sensitive isotopic ^22Na^+cellular uptake. The cells were acidified by exposure to ammonium chloride in the absence of sodium to eliminate sodium and deactivate the proton pumps. The ammonium chloride was washed out by exposing the cells to tetramethyl ammonium chloride in bicarbonate free medium. […] Sodium then was added back at various concentrations (see the abscissa of FIGS. 5a and 5b) to drive the antiporters (human NHE3 in FIG. 5a and human NHE1 in FIG. 5b). The antiporters were driven at different rates, as evidenced by the cellular pH change rate, depending on the amount of sodium added.
# As noted above, it has been concluded that squalamine inhibits NHE3 and not NHE1. […] Such inhibitors affect only the absolute number of protons that can be secreted by the cell (i.e., “Vmax”), if one looks at the kinetic characteristics of the inhibition. […] Note the following Table 1, which correlates to data collected in the test of FIG. 5a.
# [2] = system: bovine retinal endothelial cells not treated with VEGF; assay: Growth of endothelial cells not treated with VEGF; conditions: 24 and 48 hours; up to 30 μg/ml
# Procedure: In conducting this in vitro analysis, the following cell lines were tested: (a) bovine retinal endothelial cells; (b) 9L and C6 rat glioma cells; (c) human H80 glioma cells; and (d) VX2 rabbit carcinoma cells (the same type as the tumors implanted in the rabbit corneal micropocket assay test described above). The endothelial mitogen which was used in this analysis was VEGF at a concentration of 20 ng/ml.
# The cells were allowed to attach overnight to tissue culture plates containing an optimized growth media. Following attachment, the cells were exposed to solvent only or 5 to increasing concentrations of squalamine (0, 10, 20, 30, 60, and 90 μg squalamine/ml). Cell growth was counted daily for three days using a Coulter Counter. A total of 10,000 cells per well were plated and each experimental concentration was tested in quadruplicate. The results were then averaged. The bovine retinal endothelial cells were grown and treated in an identical manner to the other cell lines, […]
# Percentage endothelial cell growth inhibition (%I) was determined by the following equation: [formula]
# [3] = target: NHE1 (Homo sapiens, UniProt P19634); assay: NHE activity in PS 120 fibroblasts transfected with human NHE1; set-up: expressed in transfected cells; host or cells: PS 120 NHE-deficient fibroblasts; conditions: 7 μg/ml squalamine; acid loaded cells
# NHE1, sequence (P19634 whole entry): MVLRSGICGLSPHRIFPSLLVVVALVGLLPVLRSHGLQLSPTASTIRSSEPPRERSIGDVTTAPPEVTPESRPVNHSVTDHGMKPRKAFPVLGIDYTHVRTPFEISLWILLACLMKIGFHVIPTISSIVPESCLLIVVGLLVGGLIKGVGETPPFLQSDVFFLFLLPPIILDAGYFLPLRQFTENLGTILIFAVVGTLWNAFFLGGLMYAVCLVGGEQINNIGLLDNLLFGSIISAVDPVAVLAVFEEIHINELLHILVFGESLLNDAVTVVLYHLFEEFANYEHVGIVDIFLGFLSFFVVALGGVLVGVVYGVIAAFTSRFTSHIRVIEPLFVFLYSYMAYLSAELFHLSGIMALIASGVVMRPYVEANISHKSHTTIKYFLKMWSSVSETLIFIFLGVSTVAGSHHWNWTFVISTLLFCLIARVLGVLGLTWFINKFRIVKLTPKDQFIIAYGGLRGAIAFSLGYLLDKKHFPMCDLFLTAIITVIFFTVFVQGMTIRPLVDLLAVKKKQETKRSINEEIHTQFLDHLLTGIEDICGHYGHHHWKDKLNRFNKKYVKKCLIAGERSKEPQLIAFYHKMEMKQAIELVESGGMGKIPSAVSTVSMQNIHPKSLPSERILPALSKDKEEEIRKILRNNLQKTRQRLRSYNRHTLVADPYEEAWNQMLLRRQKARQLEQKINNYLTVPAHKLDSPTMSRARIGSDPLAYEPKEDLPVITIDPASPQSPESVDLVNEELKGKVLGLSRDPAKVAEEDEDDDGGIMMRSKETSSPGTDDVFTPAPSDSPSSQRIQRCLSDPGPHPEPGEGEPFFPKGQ
# Procedure: as §1
# T1 sequence (P48764 26-834): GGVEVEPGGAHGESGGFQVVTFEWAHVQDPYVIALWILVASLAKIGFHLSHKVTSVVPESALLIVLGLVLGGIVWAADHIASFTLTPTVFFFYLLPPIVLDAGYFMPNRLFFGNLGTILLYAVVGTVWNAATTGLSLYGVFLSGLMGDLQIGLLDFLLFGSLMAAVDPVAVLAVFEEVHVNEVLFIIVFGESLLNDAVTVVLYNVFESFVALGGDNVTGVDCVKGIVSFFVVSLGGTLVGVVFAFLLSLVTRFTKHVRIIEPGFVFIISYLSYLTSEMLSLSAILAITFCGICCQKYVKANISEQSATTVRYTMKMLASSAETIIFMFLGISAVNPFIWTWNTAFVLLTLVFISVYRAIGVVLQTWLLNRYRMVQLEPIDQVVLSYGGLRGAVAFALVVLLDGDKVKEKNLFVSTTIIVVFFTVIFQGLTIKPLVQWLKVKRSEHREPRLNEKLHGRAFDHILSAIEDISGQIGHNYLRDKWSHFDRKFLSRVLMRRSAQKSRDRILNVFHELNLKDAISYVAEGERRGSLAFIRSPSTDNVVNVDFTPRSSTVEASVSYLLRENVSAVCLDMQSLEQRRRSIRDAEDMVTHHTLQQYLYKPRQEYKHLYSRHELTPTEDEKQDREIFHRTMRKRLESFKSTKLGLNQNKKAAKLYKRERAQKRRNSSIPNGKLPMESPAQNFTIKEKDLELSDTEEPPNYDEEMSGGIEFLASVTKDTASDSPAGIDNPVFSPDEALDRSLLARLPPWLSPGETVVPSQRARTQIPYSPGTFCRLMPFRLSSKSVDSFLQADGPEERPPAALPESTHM
smiles,measurement,setting,value
"CC(C)[C@@H](CC[C@@H](C)[C@H]1CC[C@H]2[C@@H]3[C@H](O)C[C@H]4C[C@@H](NCCCNCCCCN)CC[C@]4(C)[C@H]3CC[C@]12C)OS(=O)(=O)O [Squalamine, squalamine]",effect on human NHE3 antiporter (pH change rate),"[1]; 7 μg/ml squalamine, acid loaded cells",inhibits human NHE3
same,time before NHE3 inhibition effect was observed,[1]; transfected cells,at least 30 minutes
same,cell proliferation by endothelial cells not treated with VEGF,[2],statistically unaffected
same,effect on human NHE1 antiporter (pH change rate),[3],no effective difference in the pH change rate
